Experimental data as given in PubChem BioAssay (NCI).
Where “and” joins values, the source holds several entries; their conditions need not be identical. Identical values can stand only once.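 Values below derive from 48-hour exposures of cells grown in 96-well plates, with endpoints linearly interpolated between the two concentrations bracketing the appropriate inhibition level. GI50 marks 50% less growth. TGI is the concentration that stops growth completely.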

These molecules were tested on MDA-MB-435 (assay: DTP human tumour cell line panel, 48 h).

Compound	GI50	TGI
COc1ccc(Sc2[nH]c(C(C)=O)c3ccccc23)cc1	2.76 µM	13 µM
COc1cccc2c1C(=O)c1c(O)c3c(c(O)c1C2=O)C[C@@](O)(C(=O)CO)C[C@@H]3OC1CC(N)CC(C)O1 (stereo partly drawn)	0.131 µM and 0.0327 µM	0.283 µM and 0.156 µM
CNCc1ccccc1-c1csc([C@@H](C)Nc2nc(C)nc3cc(OC)c(OC)cc23)c1	1.75 µM	3.2 µM
Cn1cc(C2=C(c3ccc(N)cc3)C(=O)NC2=O)c2ccccc21	5.71 µM	24.4 µM
Cc1cc(Cl)cc(OCCn2cc(F)cn2)c1-c1nc(N)nc2c1CN(C(=O)NCC(C)(F)F)C2	0.0578 µM	> 100 µM
COc1cccc(F)c1C(=O)c1cnc(NC2CCN(S(C)(=O)=O)CC2)nc1N	2.48 µM	> 25 µM
COC(=O)c1ccc2c(c1)nc(NC(=O)c1ccccc1)n2CCCc1ccccc1	3.4 µM	> 100 µM
NC(=O)/C=C/C(=O)c1c(Cl)cccc1Cl	1.3 µM	3.48 µM
CC1(C)N=C(N)N=C(N)N1c1ccc(CCCCc2ccc(Cl)cc2S(=O)(=O)F)c(Cl)c1	0.474 µM	16.1 µM
CC(=O)Nc1ccc(S(=O)(=O)N2C(=O)CCC2C(=O)Nc2ccc(Br)cc2)cc1 (stereo not drawn)	2.72 µM	14.3 µM
CCCCC#CC1=C(Br)C(=O)OC1	2.17 µM	5.54 µM

The molecules below were run on MOLT-4 leukemia (assay: DTP human tumour cell line panel, 48 h).

Compound	GI50 [µM]	TGI [µM]
Cn1cc(C2=C(c3ccc(N)cc3)C(=O)NC2=O)c2ccccc21	9.3	> 25
Cc1cc(Cl)cc(OCCn2cc(F)cn2)c1-c1nc(N)nc2c1CN(C(=O)NCC(C)(F)F)C2	0.112	> 100
COc1cccc(F)c1C(=O)c1cnc(NC2CCN(S(C)(=O)=O)CC2)nc1N	2.14	> 14.7
COC(=O)c1ccc2c(c1)nc(NC(=O)c1ccccc1)n2CCCc1ccccc1	2.78	> 100
NC(=O)/C=C/C(=O)c1c(Cl)cccc1Cl	1.18	5.46
CC1(C)N=C(N)N=C(N)N1c1ccc(CCCCc2ccc(Cl)cc2S(=O)(=O)F)c(Cl)c1	0.436	15.5
CC(=O)Nc1ccc(S(=O)(=O)N2C(=O)CCC2C(=O)Nc2ccc(Br)cc2)cc1 (stereo not drawn)	2.2	10.3
CCCCC#CC1=C(Br)C(=O)OC1	0.319	> 100

What follows are molecules tested on HCC-2998 colon (assay: DTP human tumour cell line panel, 48 h).

Compound	GI50 [µM]	TGI
COc1ccc(Sc2[nH]c(C(C)=O)c3ccccc23)cc1	11.9	24.4 µM
COc1cccc2c1C(=O)c1c(O)c3c(c(O)c1C2=O)C[C@@](O)(C(=O)CO)C[C@@H]3OC1CC(N)CC(C)O1 (stereo partly drawn)	0.117	0.429 µM and 0.619 µM
CNCc1ccccc1-c1csc([C@@H](C)Nc2nc(C)nc3cc(OC)c(OC)cc23)c1	1.43	2.9 µM
Cn1cc(C2=C(c3ccc(N)cc3)C(=O)NC2=O)c2ccccc21	> 25	> 25 µM
Cc1cc(Cl)cc(OCCn2cc(F)cn2)c1-c1nc(N)nc2c1CN(C(=O)NCC(C)(F)F)C2	0.315	> 100 µM
COc1cccc(F)c1C(=O)c1cnc(NC2CCN(S(C)(=O)=O)CC2)nc1N	4.75	> 25 µM
COC(=O)c1ccc2c(c1)nc(NC(=O)c1ccccc1)n2CCCc1ccccc1	30.6	> 100 µM
NC(=O)/C=C/C(=O)c1c(Cl)cccc1Cl	1.51	2.88 µM
CC1(C)N=C(N)N=C(N)N1c1ccc(CCCCc2ccc(Cl)cc2S(=O)(=O)F)c(Cl)c1	1.15	21.2 µM
CC(=O)Nc1ccc(S(=O)(=O)N2C(=O)CCC2C(=O)Nc2ccc(Br)cc2)cc1 (stereo not drawn)	3.67	22.1 µM

What follows are molecules tested on SK-MEL-28 melanoma (assay: DTP human tumour cell line panel, 48 h).

Compound	GI50	TGI
COc1ccc(Sc2[nH]c(C(C)=O)c3ccccc23)cc1	13.5 µM	26.3 µM
COc1cccc2c1C(=O)c1c(O)c3c(c(O)c1C2=O)C[C@@](O)(C(=O)CO)C[C@@H]3OC1CC(N)CC(C)O1 (stereo partly drawn)	0.135 µM and 0.0938 µM	0.325 µM and 0.477 µM
CNCc1ccccc1-c1csc([C@@H](C)Nc2nc(C)nc3cc(OC)c(OC)cc23)c1	1.95 µM	3.53 µM
Cn1cc(C2=C(c3ccc(N)cc3)C(=O)NC2=O)c2ccccc21	> 25 µM	> 25 µM
Cc1cc(Cl)cc(OCCn2cc(F)cn2)c1-c1nc(N)nc2c1CN(C(=O)NCC(C)(F)F)C2	0.0709 µM	> 100 µM
COc1cccc(F)c1C(=O)c1cnc(NC2CCN(S(C)(=O)=O)CC2)nc1N	3.43 µM	> 20.8 µM
COC(=O)c1ccc2c(c1)nc(NC(=O)c1ccccc1)n2CCCc1ccccc1	3.79 µM	> 100 µM
NC(=O)/C=C/C(=O)c1c(Cl)cccc1Cl	1.21 µM	2.52 µM
CC1(C)N=C(N)N=C(N)N1c1ccc(CCCCc2ccc(Cl)cc2S(=O)(=O)F)c(Cl)c1	0.965 µM	8.46 µM
CC(=O)Nc1ccc(S(=O)(=O)N2C(=O)CCC2C(=O)Nc2ccc(Br)cc2)cc1 (stereo not drawn)	3.49 µM	20.9 µM
CCCCC#CC1=C(Br)C(=O)OC1	3.48 µM	16.4 µM

These molecules were tested on A498 renal (assay: DTP human tumour cell line panel, 48 h).

Compound	GI50	TGI
COc1ccc(Sc2[nH]c(C(C)=O)c3ccccc23)cc1	0.265 µM	0.848 µM
COc1cccc2c1C(=O)c1c(O)c3c(c(O)c1C2=O)C[C@@](O)(C(=O)CO)C[C@@H]3OC1CC(N)CC(C)O1 (stereo partly drawn)	0.111 µM and 0.0375 µM	0.366 µM and 0.165 µM
CNCc1ccccc1-c1csc([C@@H](C)Nc2nc(C)nc3cc(OC)c(OC)cc23)c1	0.289 µM	1.92 µM
Cn1cc(C2=C(c3ccc(N)cc3)C(=O)NC2=O)c2ccccc21	3.63 µM	12 µM
Cc1cc(Cl)cc(OCCn2cc(F)cn2)c1-c1nc(N)nc2c1CN(C(=O)NCC(C)(F)F)C2	0.261 µM	> 100 µM
COc1cccc(F)c1C(=O)c1cnc(NC2CCN(S(C)(=O)=O)CC2)nc1N	3.58 µM	8.72 µM
COC(=O)c1ccc2c(c1)nc(NC(=O)c1ccccc1)n2CCCc1ccccc1	16 µM	> 100 µM
NC(=O)/C=C/C(=O)c1c(Cl)cccc1Cl	1.44 µM	2.74 µM
CC1(C)N=C(N)N=C(N)N1c1ccc(CCCCc2ccc(Cl)cc2S(=O)(=O)F)c(Cl)c1	3.19 µM	18.9 µM
